From ChEMBL document CHEMBL4431298 (Medchemcomm, 2016)
pEC50, pIC50: −log10 of the molar value. Blank lines part the entries; values can stand above or below the molecule they belong to. Activity calls are given as the source filed them. No cut-off for these calls is given here.

What was measured:
Format in all cases: cell-based
[1] = biological target: T1, Ferroportin (Homo sapiens) (UniProt Q9NP59); assay: Binding affinity to recombinant human C-terminal nano luciferase-tagged SLC40A1 expressed in human T-REx-293 cells assessed as internalization of compound-ferroportin conjugate at 0.0001 to 0.01 mg/ml incubated for 20 hrs measured at 549 nanometer by Hoechst staining based cellomics arrayscan imaging analysis
T1 sequence (whole entry): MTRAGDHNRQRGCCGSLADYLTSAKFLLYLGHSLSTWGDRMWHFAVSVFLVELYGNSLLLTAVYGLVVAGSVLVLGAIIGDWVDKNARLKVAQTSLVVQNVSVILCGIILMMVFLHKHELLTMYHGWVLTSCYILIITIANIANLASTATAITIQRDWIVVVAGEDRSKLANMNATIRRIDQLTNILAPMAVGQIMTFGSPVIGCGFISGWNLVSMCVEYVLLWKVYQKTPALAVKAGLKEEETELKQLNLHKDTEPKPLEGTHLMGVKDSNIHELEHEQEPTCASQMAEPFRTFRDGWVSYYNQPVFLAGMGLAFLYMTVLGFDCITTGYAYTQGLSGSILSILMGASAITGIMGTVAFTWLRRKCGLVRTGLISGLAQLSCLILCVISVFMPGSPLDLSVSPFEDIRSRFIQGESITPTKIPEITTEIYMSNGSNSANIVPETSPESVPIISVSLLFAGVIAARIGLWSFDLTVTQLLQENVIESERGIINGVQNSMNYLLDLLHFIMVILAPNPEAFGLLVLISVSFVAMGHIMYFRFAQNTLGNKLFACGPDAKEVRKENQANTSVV

[2] = biological target: T1, Ferroportin (Homo sapiens); assay: (§1) Inhibition of recombinant human C-terminal nano luciferase-tagged SLC40A1 expressed in human T-REx-293 cells assessed as ferroportin internalization incubated for 20 hrs measured at 459 nanometer by Hoechst staining based cellomics arrayscan imaging analysis
Ferroportin [3] = biological target: T2, Ferroportin (Homo sapiens, UniProt Q9NP59); assay: as §1
T2 sequence (Q9NP59 whole entry): T1 sequence (whole entry)

[4] = biological target: T1, Ferroportin (Homo sapiens); assay: (§2) Inhibition of recombinant human SLC40A1 expressed in human T-REx-293 cells assessed as reduction in ferroportin internalization incubated for 20 hrs by luciferase reporter gene assay
Ferroportin [5] = biological target: T2, Ferroportin; assay: as §2
[6] = biological target: T1, Ferroportin (Homo sapiens); assay: Inhibition of recombinant human C-terminal nano luciferase-tagged SLC40A1 expressed in human T-REx-293 cells assessed as decrease in 55Fe-apotransferrin export at 10 uM preincubated for 24 hrs followed by export buffer and compound addition measured after 5 mins by scintillation counting method
[7] = biological target: T1, Ferroportin (Homo sapiens); assay: Inhibition of recombinant human SLC40A1 expressed in human T-REx-293 cells exposed to 4 hrs of doxycycline induction assessed as reduction in ferroportin internalization incubated for 20 hrs by luciferase reporter gene assay relative to control; settings: concentration not given here
[8] = biological target: T1, Ferroportin (Homo sapiens); assay: Inhibition of recombinant human SLC40A1 expressed in human T-REx-293 cells exposed to >4 hrs of doxycycline induction assessed as reduction in ferroportin internalization incubated for 20 hrs by luciferase reporter gene assay relative to control; settings: concentration not given here
Ferroportin [9] = biological target: T2, Ferroportin; assay: Inhibition of human GFP-tagged SLC40A1 expressed in HEK293 cells assessed as ferroportin internalization by fluorescence microscopic analysis

Activity [1]: Active | inhibition [2]: Dose-dependent effect | pEC50 (Ferroportin [3]): 5.73 | inhibition [4]: Dose-dependent effect | pEC50 (Ferroportin [5]): 6.46
SMILES: CC[C@H](C)[C@H](NC(=O)[C@H](CS)NC(=O)[C@@H](NC(=O)[C@@H]1CCCN1C(=O)[C@H](Cc1ccccc1)NC(=O)[C@H](Cc1c[nH]cn1)NC(=O)[C@@H](NC(=O)[C@H](CC(=O)O)NC(C)=O)[C@@H](C)O)[C@@H](C)CC)C(=O)N[C@@H](Cc1ccccc1)C(=O)NCCOCCOCCOCC(=O)N[C@H](CCCNC(=N)N)C(=O)N[C@H](CCCNC(=N)N)C(=O)N[C@H](CCCCNC(=O)CCCCCNC(=O)CCC1=C(C)C2=Cc3ccc(-c4ccc(OC)cc4)n3[B-](F)(F)[N+]2=C1C)C(=O)O

inhibition [4]: Dose-dependent effect
SMILES: CCCCCCCCCCCCCCCC(=O)NCCCOCCOCCOCCCNC(=O)C[C@H](Cc1ccccc1)NC(=O)[C@H](CCCNC(=N)N)NC(=O)[C@@H](CS)NC(=O)[C@H](CCCNC(=N)N)NC(=O)C[C@@H]1CCCN1C(=O)[C@@H](NC(=O)[C@H](Cc1c[nH]cn1)NC(=O)[C@@H](NC(=O)CNCC(=O)O)[C@@H](C)O)C(c1ccccc1)c1ccccc1

pIC50 (Ferroportin [9]): 7.12
SMILES: CC[C@H](C)[C@H](NC(=O)[C@H](CS)NC(=O)[C@@H](NC(=O)[C@@H]1CCCN1C(=O)[C@H](Cc1ccccc1)NC(=O)[C@H](Cc1cnc[nH]1)NC(=O)[C@@H](NC(=O)[C@H](CC(=O)O)NC(C)=O)[C@@H](C)O)[C@@H](C)CC)C(=O)N[C@@H](Cc1ccccc1)C(=O)O

Continued, molecule first:

SMILES: CC[C@H](C)[C@@H]1NC(=O)[C@H](NC(=O)[C@@H](NC(=O)[C@@H]2CCCN2C(=O)[C@H](Cc2ccccc2)NC(=O)[C@H](Cc2cnc[nH]2)NC(=O)[C@@H](NC(=O)[C@@H](N)CC(=O)O)[C@@H](C)O)[C@@H](C)CC)CSSC[C@@H](C(=O)N[C@@H](CCCCN)C(=O)N[C@H](C(=O)O)[C@@H](C)O)NC(=O)[C@@H]2CSSC[C@@H]3NC(=O)[C@@H]4CSSC[C@H](NC(=O)[C@H](Cc5ccccc5)NC1=O)C(=O)N[C@@H](CSSC[C@H](NC(=O)[C@H](CCCCN)NC(=O)[C@H](CO)NC(=O)[C@H](CCCNC(=N)N)NC(=O)[C@H](Cc1cnc[nH]1)NC3=O)C(=O)NCC(=O)N[C@@H](CCSC)C(=O)N2)C(=O)NCC(=O)N4
inhibition [6]: Active | inhibition [7]: 50% | inhibition [8]: 25% | inhibition [4]: Dose-dependent effect

SMILES: CCCCCCCCCCCCCCCC(=O)NCCCOCCOCCOCCCNC(=O)C[C@H](Cc1ccccc1)NC(=O)[C@H](CCCNC(=N)N)NC(=O)[C@H](CS)NC(=O)[C@H](CCCNC(=N)N)NC(=O)C[C@@H]1CCCN1C(=O)[C@@H](NC(=O)[C@H](Cc1c[nH]cn1)NC(=O)[C@@H](NC(=O)CNCC(=O)O)[C@@H](C)O)C(c1ccccc1)c1ccccc1
pEC50 (Ferroportin [5]): 7.68

SMILES: CC[C@H](C)[C@@H]1NC(=O)[C@@H](NC(=O)[C@@H](NC(=O)[C@@H]2CCCN2C(=O)[C@H](Cc2ccccc2)NC(=O)[C@H](Cc2c[nH]cn2)NC(=O)[C@@H](NC(=O)[C@@H](N)CC(=O)O)[C@@H](C)O)[C@@H](C)CC)CSSC[C@@H](C(=O)N[C@@H](CCCCN)C(=O)N[C@H](C(=O)O)[C@@H](C)O)NC(=O)[C@@H]2CSSC[C@@H]3NC(=O)[C@@H]4CSSC[C@H](NC(=O)[C@H](Cc5ccccc5)NC1=O)C(=O)N[C@@H](CSSC[C@H](NC(=O)[C@H](CCCCN)NC(=O)[C@H](CO)NC(=O)[C@H](CCCNC(=N)N)NC(=O)[C@H](Cc1c[nH]cn1)NC3=O)C(=O)NCC(=O)N[C@@H](CCSC)C(=O)N2)C(=O)NCC(=O)N4
pEC50 (Ferroportin [5]): 7.66
